Measurements taken from patent US9687552B2, “Association of poly(N-acryloylglycinamide) with at least one active principle” (CENTRE NATIONAL DE LA RECHERCHE SCIENTIFIQUE, priority 2012, dated 2017).

Assays:
[1] = release of drug models from PAG hydrogel into physiological serum at 37° C. (UV spectrometry); assay type: physicochemical
Protocol: 60 mg of PAG polymer of molecular mass equal to 170 000 g/mol are placed in contact with 1 mil of physiological serum (6% by mass) in a small, hermetically scaled cylindrical flask and heated at 60° C. for a few minutes to obtain a clear, homogeneous solution, which is gelled by cooling.
The cycle is repeated twice to perfect the homogeneity of the gel.
10 mg of the compound chosen as drug model are added. The mixture is heated to have a homogeneous solution, which is left to cool to obtain the compound-gel system.
The flask is placed in a mobile incubator at 37° C. after having added on top of the gel formed 1 ml of physiological serum, into which the compound trapped in the hydrogel gradually diffuses. The receiving medium is then renewed at regular intervals and the compound that has diffused is evaluated quantitatively by UV spectrometry. The curve of gradual release is plotted as a percentage of the amount initially placed in the gel.

[2] = test system: tissues and organs of the intraperitoneal cavity in mice; assay: delivery of methylene blue from PAG hydrogel to tissues and organs of the intraperitoneal cavity in mice; assay type: in vivo
Protocol: The delivery of the dye from the charged hydrogel to the tissues and organs of the intraperitoneal cavity in mice is observed.
To do this, an isotonic solution of PAG (molar mass equal to about 176 000 g/mol, 6% by weight of PAG) containing methylene blue (4 ml of solution (20 mg of dye) per 16 ml of gel) formed at 60° C. conditioned is introduced into heated syringes to be injected rapidly at 45° C. through a 23-gauge needle in order to fill the intraperitoneal cavity of the mice.
The mice treated according to the regulatory procedures were sacrificed after 2 hours, 8 hours, 24 hours, 30 hours and 52 hours (two animals per point).
After opening the abdomen, the distributions of the blue color in the gel, the tissues and the organs were assessed visually and compared at the same times with those observed for the control mice which received by similar injection an isotonic solution of the same concentration of methylene blue.

time after which the blue color totally disappeared ([2]; control mice: isotonic solution of the same concentration without PAG, intraperitoneal injection) | time the gel, tissues and organs, especially the liver, remained colored ([2]; in isotonic PAG solution (about 176 000 g/mol, 6% by weight), injected at 45° C. intraperitoneally, mice) | SMILES | extent of release from the gel ([1]; 10 mg in PAG 170 000 g/mol gel, 6% by mass in physiological serum, 37° C.) | "burst" release as percentage of the amount initially placed in the gel ([1]; at 1 hour, 10 mg in PAG 170 000 g/mol gel, 6% by mass in physiological serum, 37° C.) | dissolution in the same medium without gel ([1]; physiological serum, without gel)
 |  | CC(=O)[O-].CC(=O)[O-].[Co+2] [cobalt acetate] | gradual release until depletion is complete | less than 15% | dissolves instantaneously in its entirety
24 h | at least 52 hours | CN(C)c1ccc2nc3ccc(=[N+](C)C)cc-3sc2c1 [methylene blue] |  |  | 
